Measured values from patent US20240140983A1, “SINGLE STRANDED DNA ENZYME INHIBITORS” (MASSEY UNIVERSITY, priority 2021, published 2024).

How the values were obtained:
human CDA = human CDA (Homo sapiens, UniProt P32320); test: UV-Vis based deamination assay against human CDA; assay type: biochemical; details: 27 nM human CDA; for Ki: 2 mM dC, absorbance at 286 nm, Lambert's W function
Protocol: FIG. 12 is a graph showing the initial rate of human CDA-catalysed deamination of 2′-deoxycytidine (dC) in the absence (no inhibitor) and presence of dZ, 34R and 34S. Conditions: 100 μM dC as a substrate, using different concentrations of inhibitors, 27 nM human CDA in 20 mM Na-phosphate buffer, pH 6.0 supplemented with 100 mM NaCl at 25° C. Absorbance was measured at 286 nm at the start of deamination. Samples labelled as “preincubated” refer to experiments when the enzyme was preincubated for 5 min with inhibitors and then 100 μM dC was added.
The seven-membered ring-containing nucleosides synthesized were tested for their inhibition potential against human CDA enzyme by a UV-Vis based deamination assay. All data were obtained by monitoring absorbance of 2′-deoxycytidine at 286 nm and 25° C., where the deamination of cytosine leads to a decrease in absorption. For nucleosides 34R and 34S, the condition of the assay used was 27 nM human CDA and 100 μM dC as a substrate in 20 mM Na-phosphate buffer, 100 mM NaCl at pH 6.0; an average of 8 measurements was done for each nucleoside. As the original 7-membered ring nucleosides were reported as slow-binding inhibitors of CDA,^10 preincubation conditions of an inhibitor with CDA were also tested for the assay and labelled as ‘preincubation’. Here, the nucleosides were preincubated with the enzyme for 5 min and then 100 μM dC substrate was added to start the measurements (FIG. 12).

A3BCTD-QM-ΔL3-AL1swap [1] = test: Isothermal titration calorimetry (ITC), binding to A3BCTD-QM-ΔL3-AL1swap; design: species or system human; details: ITC buffer 3 (Na+/K+ phosphate, pH 6.0, 200 mM trimethylamine N-oxide), 25° C
Excerpt: (§1) The inventors used isothermal titration calorimetry (ITC) to determine binding of the cross-linked oligos to A3 enzymes, specifically to A3A-E72A, where the active-site glutamic acid is replaced with alanine, and to the catalytically competent A3BCTD-QM-ΔL3-AL1swap and compared this binding to that of linear oligos.
For oligos containing dZ, catalytically active A3BCTD-QM-ΔL3-AL1swap was used, as it has the active-site glutamic acid required for protonation of N3 in dZ, which activates C4 in dZ to accept nucleophilic OH^−/H2O coordinated to the Zn^2+, which converts dZ into a transition-state or an intermediate analogue of cytidine deamination.^8
For A3BCTD-QM-ΔL3-AL1swap we used ITC buffer 3: 50 mM Na^+/K^+ phosphate, pH 6.0, 200 mM trimethylamine N-oxide dihydrate, 2.5 mM TCEP, 200 μM EDTA. Data evaluation was performed with the software provided by the supplier of MicroCal ITC200.

A3BCTD-QM-ΔL3-AL1swap [2] = test: NMR assay: inhibition of A3BCTD-QM-ΔL3-AL1swap-catalyzed deamination of a linear substrate (initial rates); assay type: biochemical, human; details: for Ki / Vmax: 5′-AT3dCAT3 substrate, 50 nM enzyme; for inhibition effect: Km of 5′-AT3dCAT3 (150 μM) compared with apparent Ki: non-linear regression analysis
Protocol: FIG. 6. is a set of graphs showing inhibition of A3BCTD-QM-ΔL3-AL1swap-catalyzed deamination of 5′-T4CAT by dZ/FdZ-containing linear and cross-linked oligos. Initial rate of deamination was measured under the following experimental conditions: 400 μM of 5′-T4CAT, 8 μM (A, B) or 4 μM (C) of dZ/FdZ-containing oligos, 300 nM (A, B) or 200 nM (C) of A3BCTD-QM-ΔL3-AL1swap in a 50 mM sodium phosphate buffer (pH 6.0) containing 100 mM NaCl, 2.5 mM β-mercaptoethanol, 0.1 M EDTA, 50 μM 3-(trimethylsilyl)-2,2,3,3-tetradeuteropropionic acid (TSP) at 25° C. Error bars are estimated standard deviations from triplicate measurements.
FIG. 13 is a graph showing the inhibition of A3BCTD-QM-ΔL3-AL1swap-catalyzed deamination of 5′-T4CAT by linear oligos containing dZ, 34R, 34S and 46. Initial rate of deamination was measured under the following experimental conditions: 400 μM of 5′-T4CAT, at oligo concentration as indicated, 300 nM of A3BCTD-QM-ΔL3-AL1swap in a 50 mM sodium phosphate buffer (pH 6.0) containing 100 mM NaCl, 2.5 mM β-mercaptoethanol, 0.1 M EDTA, 50 μM 3-(trimethylsilyl)-2,2,3,3-tetradeuteropropionic acid (TSP) and 20% D2O at 25° C. Error bars are estimated standard deviations from triplicate measurements.
The inhibition potential of cross-linked oligos was investigated by changing dC to dZ or FdZ in these constructs. The NMR assay described in Example 4 was used to compare the internally cross-linked dZ/FdZ-containing oligos with a linear DNA inhibitor containing dZ/FdZ (dZ-linear is 5′-AT3dZAT3, FdZ-linear is 5′-AT3FdZAT3) that were characterized earlier.^1-2 Residual activity of A3BCTD-QM-ΔL3-AL1swap on the unmodified oligo (5′-T4dCAT) as a substrate in the presence of a known concentration of dZ/FdZ-containing inhibitors (linear and cross-linked) was measured using NMR assay.
(§2) For determination of inhibition constants (KI) of inhibitors the inventors first evaluated kinetic parameters of A3BCTD-QM-ΔL3-AL1swap on two DNA substrates (Table 5), which were used to detect the residual deamination rate in the presence of inhibitors (Table 6). Fitting the experimental data by non-linear least squares using a global fit provided similar values of kinetic parameters to those obtained by the linearized Lineweaver-Burk plot (Table 5). Then, the inhibition constants for strongest cross-linked inhibitors were calculated by several methods assuming a competitive mode of inhibition^1 (Table 6) based on experiments in which the concentration of the individual inhibitor was varied, and the residual deamination initial rate was measured.
Residual activity of A3BCTD-QM-ΔL3-AL1swap on the unmodified oligo (5′-T4CAT) as a substrate in the presence of a known concentration of inhibitors was measured using the NMR assay as described in Example 5.

A3A-E72A = A3A-E72A (Homo sapiens, UniProt P31941, E72A); test: Isothermal titration calorimetry (ITC), binding to A3A-E72A; details: 25° C
Sequence of A3A-E72A (P31941 whole entry E72A): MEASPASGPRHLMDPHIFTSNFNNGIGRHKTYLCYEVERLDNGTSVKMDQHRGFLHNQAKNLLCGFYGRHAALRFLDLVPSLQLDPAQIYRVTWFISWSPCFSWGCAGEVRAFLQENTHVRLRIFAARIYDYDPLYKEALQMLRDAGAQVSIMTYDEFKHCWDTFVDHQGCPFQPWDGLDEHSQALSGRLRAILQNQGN
Protocol: as §1
Desalted unmodified DNA oligonucleotides were purchased (Integrated DNA Technologies) at 1 or 5 μmol synthesis scale and dissolved in one of the buffers described below to give 10 mM solutions. ITC experiments were conducted at 25° C. using a MicroCal ITC200 (now Malvern Instruments) isothermal titration calorimeter. […] The ratio of protein to oligonucleotide concentration is usually 1:10. Titrations are made up of 30 individual additions. To prevent protein precipitation during the long time-scale of the experiment it was necessary to used improved ITC buffers. ITC buffer 1: 50 mM MES, pH 6.0, 100 mM NaCl, 200 μM EDTA, 1 mM β-mercaptoethanol and ITC buffer 2: 50 mM Na^+/K^+ phosphate, pH 6.0, 50 mM NaCl, 50 mM choline acetate, 2.5 mM TCEP, 200 μM EDTA with 30 mg/mL BSA. After preparation, ITC buffer 2 was frozen and defrosted before the experiments. ITC buffer 2* is freshly prepared buffer 2.
In contrast, A3A-E72 Å was used, particularly for oligos containing dC so that the complications of deamination can be avoided, although this mutation, notwithstanding no change to active-site structure, does cause a small but significant diminution in ligand binding^1 through loss of hydrogen bonding to the ligand. The inventors expect that the binding of inactivated A3BCTD-QM-ΔL3-AL1swap to the substrate will be close to or even worse than Km of 200 μM, which places substrate binding outside ITC applicability. One should emphasise that the composition of buffers used for NMR kinetic and ITC binding experiments are different, mainly because proteins in ITC experiments need to be at much higher concentration than for kinetic assays (10-100 μM for ITC versus 20-300 nM in kinetic experiments).

A3BCTD-QM-ΔL3-AL1swap [3] = test: Real-time NMR assay: deamination of DNA substrates by A3BCTD-QM-ΔL3-AL1swap; assay type: biochemical, human
Protocol: FIG. 5 is a set of graphs showing the initial rate of A3BCTD-QM-ΔL3-AL1swap catalyzed deamination of terminally (A), internally (B-D) cross-linked oligos and a dC-hairpin in comparison with the linear substrate. Substrate concentrations are 100 μM in (A and B), 800 μM in (C) and 400 μM in (D). Enzyme concentrations are 50 nM in (A and B) and 300 nM in (C) and 100 nM in (D). Buffers are 50 mM citrate-phosphate (pH 5.5 for A-C) and 50 mM Na-phosphate (pH 6.0 for D), 200 mM NaCl, 2 mM β-mercaptoethanol, 200 μM 4,4-dimethyl-4-silapentane-1-sulfonic acid (DSS) and 10% D2O at 25° C. Error bars are estimated standard deviations from triplicate measurements.
Real-time NMR assays are advantageous because they are direct, utilizing only A3 enzymes and oligos in a suitable buffer system, in contrast to many fluorescence-based assays where a secondary enzyme and a fluorescently modified oligo are used. The NMR-based assay described herein allows a Michaelis-Menten kinetic model to be used to characterize both A3 substrates and inhibitors based on direct determination of the initial velocity of deamination of various ssDNA substrates (including modified substrates) in the presence of A3 enzymes.
The A3 enzyme used in the experiments detailed herein is the well-characterized and very active A3BCTD-QM-ΔL3-AL1swap,^1 where loop 3 is deleted and loop 1 is replaced with the corresponding loop 1 from A3A in addition to four point mutations remote to the enzyme's active site. […] Recent work by the inventors on the related enzyme, A3G, has shown that inhibition of the C-terminal catalytic domain is mirrored by the inhibition of the full-length enzyme, validating their approach of using catalytic C-terminal domains for inhibitor development.^2
Using the 9-mer oligonucleotide ATTTCATTT (5′-AT3dCAT3) (SEQ ID NO: 1) as the standard substrate, the inventors compared the deamination of both terminally and internally cross-linked oligos prepared as above using a previously described real-time NMR assay.^1, 45 For the terminally cross-linked oligos, decreased rates of deamination were observed from 9-mer to 5-mer. The number of phosphates of the modified 9-mer sequence is the same as for the 9-mer DNA control (FIG. 5A). […] The next internal cross-link 2 was designed based on modified nucleotides dU^E and dA^N3. […] However, a marked 2.3 times increase in deamination rate was detected for oligo dC[C^N3(−2),H^E1(+1)]X having internal cross-link 3 connecting −2 and +1 positions in the DNA sequence (FIG. 5D). It is surprising that synthetic oligo dC[C^N3(−2),H^E1(+1)]X was deaminated even faster than a native DNA hairpin.
as §2

wild-type APOBEC3A = molecular target: T1, wild-type APOBEC3A (Homo sapiens, UniProt P31941); test: NMR assay: wild-type APOBEC3A-catalysed deamination of dC-hairpin-3, Lambert's W function; assay type: biochemical; details: pH 7.4, 140 nM enzyme, 500 μM dC-hairpin-3
T1 construct: His7 (C); made in house
T1 sequence (P31941 whole entry): as the sequence (P31941 whole entry E72A) above, with A72E counted along it
Protocol: Inhibitors were tested in the NMR assay monitoring APOBEC3A-catalysed deamination of dC-hairpin-3. Deamination data was analysed using Lambert's W function as described in Example 5.

[4] = Lineweaver-Burk plot for the substrate/Dixon plot for the inhibitor
[5] = Non-linear regression analysis for both substrate and inhibitor
[6] = Linear analysis (Lineweaver-Burk plot)

Sequence of human CDA (P32320 whole entry): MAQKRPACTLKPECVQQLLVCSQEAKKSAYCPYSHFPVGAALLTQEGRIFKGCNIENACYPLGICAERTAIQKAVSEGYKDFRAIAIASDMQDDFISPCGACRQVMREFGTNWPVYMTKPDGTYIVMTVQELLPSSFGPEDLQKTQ

O=c1ncccn1[C@H]1C[C@H](O)[C@@H](CO)O1 [dZ, 2′-deoxyzebularine] showed a Ki (human CDA) of 10700 ± 500 nM.
Work on 5′-AT3dZAT3 [dZ-linear] yielded a Kd (A3BCTD-QM-ΔL3-AL1swap [1]) of 11400 ± 2300 nM, a Ki (A3BCTD-QM-ΔL3-AL1swap [2]; [4]) of 7500 ± 1700 nM and a Ki (A3BCTD-QM-ΔL3-AL1swap [2]; [5]) of 7000 ± 1300 nM. For the same compound, the Vmax (A3BCTD-QM-ΔL3-AL1swap [2]; [5]) was 0.0126 ± 0.0008 µM/s and the “inhibition effect: Km of 5′-AT3dCAT3 (150 μM) compared with apparent Ki” value (A3BCTD-QM-ΔL3-AL1swap [2]) was 20 fold.
With O=C1NCC=CCN1[C@H]1C[C@H](O)[C@@H](CO)O1 [compound 46, 1-[2-deoxy-β-D-erythro-pentofuranosyl]-1,3,4,7-tetrahydro-2H-1,3-diazepin-2-one] the Ki (human CDA) was 430 ± 80 nM.
ATTTCATTT [5′-AT3dCAT3] showed a Kd (A3A-E72A; ITC buffer 1 (50 mM MES, pH 6.0)) of 200 ± 60 nM, a Kd (A3A-E72A; ITC buffer 2 (Na+/K+ phosphate, pH 6.0, BSA; frozen and defrosted)) of 120 ± 30 nM and a Kd (A3A-E72A; ITC buffer 2* (freshly prepared buffer 2)) of 130 ± 30 nM. For the same compound, the Km (A3BCTD-QM-ΔL3-AL1swap [3]; [6]) was 200 ± 30 µM, the Vmax (A3BCTD-QM-ΔL3-AL1swap [3]; [6]) was 0.014 ± 0.002 µM/s and the kcat (A3BCTD-QM-ΔL3-AL1swap [3]; [6]) was 0.29 ± 0.04 s⁻¹. For the same compound, the Km (A3BCTD-QM-ΔL3-AL1swap [3]; Non-linear regression analysis) was 150 µM, the Vmax (A3BCTD-QM-ΔL3-AL1swap [3]; Non-linear regression analysis) was 0.0126 ± 0.0008 µM/s and the kcat (A3BCTD-QM-ΔL3-AL1swap [3]; Non-linear regression analysis) was 0.26 ± 0.02 s⁻¹.
With 5′-AT3FdZAT3 [FdZ-linear] the Ki (wild-type APOBEC3A) was 2400 ± 940 nM, the “inhibition of deamination of 5′-T4CAT (in words)” value (A3BCTD-QM-ΔL3-AL1swap [2]; 400 μM 5′-T4CAT, 8 or 4 μM oligo, 300 or 200 nM enzyme, pH 6.0 (FIG. 6)) was “more powerful inhibitor of A3BCTD-QM-ΔL3-AL1swap than dZ-linear oligo” and the Ki (A3BCTD-QM-ΔL3-AL1swap [2]; [4]) was 2100 ± 800 nM. For the same compound, the Ki (A3BCTD-QM-ΔL3-AL1swap [2]; [5]) was 4400 ± 700 nM, the Vmax (A3BCTD-QM-ΔL3-AL1swap [2]; [5]) was 0.0126 ± 0.0008 µM/s and the “inhibition effect: Km of 5′-AT3dCAT3 (150 μM) compared with apparent Ki” value (A3BCTD-QM-ΔL3-AL1swap [2]) was 35 fold.
O=C1CC[C@H](O)CCN1[C@H]1C[C@H](O)[C@@H](CO)O1 [compound 34S, 1-[2-deoxy-β-D-erythro-pentofuranosyl]-(S)-5-hydroxyazepan-2-one] was tested, and the “inhibitory potential against human CDA” value (human CDA; 100 μM dC, pH 6.0, 25° C, with and without 5 min preincubation (FIG. 12)) was “some inhibitory potential”.
With 5'-TGCGCTT-46-GCGCT [46-hairpin-3] the Ki (wild-type APOBEC3A) was 290 ± 40 nM.
